Measured values from patent publication US9370589B2, “Switching fluorescent nanoparticle probe and fluorescent particle imaging method using same” (SHIMADZU CORPORATION, priority 2010, dated 2016).

Columns and labels:
[1] = Absorption and fluorescence spectra of fluorescent dye-encapsulating lactosomes in ultrapure water; format: physicochemical; settings: polymer 1 mg/mL; for absorption maximum / Fluorescence maximum: lactosome encapsulating 1 mol % of dye
Procedure: Among the lactosomes encapsulating the fluorescent dye IC7-1 (IC7-1/Lactosomes) obtained in Example 1-1, the freeze-dried products of the lactosomes each encapsulating 1 mol %, 5 mol %, 10 mol % and 20 mol % of the fluorescent dye were subjected to measurement of absorption spectra and fluorescence spectra in the following manner.
The measurement of absorption spectra was performed to confirm that each of these lactosomes encapsulated the fluorescent dye according to their respective fluorescent dye blend ratios. Further, the measurement of fluorescence intensity of the fluorescent dye-encapsulating lactosomes was performed. The measurement of absorption spectra was performed using an ultraviolet-visible spectrophotometer (UVmini-1240, manufactured by SHIMADZU CORPORATION). The measurement of fluorescence spectra was performed at an excitation wavelength of 785 nm in the range of 700 to 900 nm using a fluorescence spectrophotometer (RF-5300PC, manufactured by SHIMADZU CORPORATION).
Each of the fluorescent dye-encapsulating lactosomes was dispersed in ultrapure water so that the concentration of the amphiphilic polymer was 1 mg/mL to measure absorption and fluorescence spectra (FIG. 1). The lactosome encapsulating 1 mol % of IC7-1 had adsorption maximum at 831 nm and fluorescence maximum at 836 nm. Although the intensity of absorbance increased as the fluorescent dye content increased, the intensity of fluorescence was highest when the fluorescent dye content was 1 mol %, and was reduced to about 1/120 when the fluorescent dye content was 20 mol % as compared to when the fluorescent dye content was 1 mol % (FIGS. 1(a) and 1(b)). The lactosome encapsulating 1 mol % of IC7-2 had absorption maximum at 831 nm and fluorescence maximum at 833 nm. […] Also when IC7-2 was contained, quenching of fluorescence was observed. The intensity of fluorescence was reduced to about ⅛ when the IC7-2 content was 20 mol % as compared to when the IC7-2 content was 1 mol % (FIGS. 1(c) and 1(d)).
Among the lactosomes encapsulating the fluorescent dye IC7-1 (IC7-1/Lactosomes) obtained in Example 1-1, the lactosomes each encapsulating 0.5 mol % (for comparison), 1 mol %, 2 mol %, 4 mol %, 8 mol %. 12 mol %, 16 mol %, or 20 mol % of the fluorescent dye IC7-1 (IC7-1/Lactosomes) were dispersed in ultrapure water so that the concentration of the amphiphilic polymer was 1 mg/mL to measure the maximum value of fluorescence at an excitation wavelength of 785 nm (FIG. 2(a)).

[2] = Dependence of fluorescence intensity of fluorescent dye-encapsulating lactosome on fluorescent dye content; format: physicochemical; settings: for intensity of fluorescence by adding SDS, BSA, or plasma: lactosome with varied dye content; for fluorescent dye content at which the intensity of fluorescence in PBS was maximized: polymer 1/15 mg/mL
Procedure: Lactosomes encapsulating, as a fluorescent dye, IC7-1, IC7-2, IR820, IR783, or IR806 were prepared by changing the fluorescent dye content (1 mg/mL), and were then mixed with PBS, 5 wt % SDS, 5 wt % BSA, or plasma 1:1 (volume ratio), and the mixture was allowed to stand at room temperature for 30 minutes under lightproof conditions, and then diluted with PBS so that the concentration of the amphiphilic polymer was 1/15 mg/mL to measure the intensity of fluorescence using Fluorolog-3 (HORIBA Jobin Yvon Inc.) (FIG. 6).

[3] = Fluorescence intensity before and after change in external environment (addition of 5 wt % SDS); settings: lactosome containing 20 mol % of dye (IC7-2: 15 mol %); for Ratio of fluorescence intensity (A/B): 5 wt % SDS versus PBS; for Fluorescence maximum: addition of 5 wt % SDS, polymer 1/15 mg/mL; for Fluorescence intensity (A): after addition of 5 wt % SDS; for Fluorescence intensity (PBS)(B): in PBS, at the SDS fluorescence maximum wavelength
Source text: (§1) Requirements for recovery of fluorescence intensity under in vivo conditions were studied.
(§2) It is to be noted that specific composition of the phosphate buffered saline (PBS) is as follows: 29 g of Na2HPO4.12H2O, 2.96 g of NaH2PO4.2H2O, and 8.7 g of NaCl per 1 liter of ultrapure water.

[4] = Fluorescence intensity before and after change in external environment (addition of plasma); settings: for Fluorescence maximum: lactosome (PSar-PLLA) containing 20 mol % of dye (IC7-2: 15 mol %), addition of plasma, polymer 1/15 mg/mL; for Fluorescence intensity (A) / Fluorescence intensity (PBS)(B) / Ratio of fluorescence intensity (A/B): lactosome containing 20 mol % of dye (IC7-2: 15 mol %); for Fluorescence intensity (A): after addition of plasma; for Fluorescence intensity (PBS)(B): in PBS, at the plasma fluorescence maximum wavelength; for Ratio of fluorescence intensity (A/B): plasma versus PBS
Procedure: Requirements for recovery of fluorescence intensity under in vivo conditions were studied. A water dispersion of the lactosome encapsulating 20 mol % of IC7-1 in a carrier agent PSar-PLLA (1 mg/mL) and phosphate buffered saline (PBS), plasma (collected from a male ddY), 5 wt % albumin (BSA), or 5 wt % SDS were mixed 1:1 (volume ratio), respectively, and the mixture was allowed to stand at room temperature for 30 minutes under lightproof conditions, and then diluted with PBS so that the concentration of the amphiphilic polymer was 1/15 mg/mL to measure a fluorescence spectrum (FIG. 3(a)).

albumin (BSA) = albumin (BSA) (Bos taurus, UniProt P02769); assay: Fluorescence intensity before and after change in external environment (addition of 5 wt % BSA); settings: lactosome containing 20 mol % of dye (IC7-2: 15 mol %); for Ratio of fluorescence intensity (A/B): 5 wt % BSA versus PBS; for Fluorescence maximum: addition of 5 wt % BSA, polymer 1/15 mg/mL; for Fluorescence intensity (A): after addition of 5 wt % BSA; for Fluorescence intensity (PBS)(B): in PBS, at the BSA fluorescence maximum wavelength
Chain of albumin (BSA) (P02769 25-607): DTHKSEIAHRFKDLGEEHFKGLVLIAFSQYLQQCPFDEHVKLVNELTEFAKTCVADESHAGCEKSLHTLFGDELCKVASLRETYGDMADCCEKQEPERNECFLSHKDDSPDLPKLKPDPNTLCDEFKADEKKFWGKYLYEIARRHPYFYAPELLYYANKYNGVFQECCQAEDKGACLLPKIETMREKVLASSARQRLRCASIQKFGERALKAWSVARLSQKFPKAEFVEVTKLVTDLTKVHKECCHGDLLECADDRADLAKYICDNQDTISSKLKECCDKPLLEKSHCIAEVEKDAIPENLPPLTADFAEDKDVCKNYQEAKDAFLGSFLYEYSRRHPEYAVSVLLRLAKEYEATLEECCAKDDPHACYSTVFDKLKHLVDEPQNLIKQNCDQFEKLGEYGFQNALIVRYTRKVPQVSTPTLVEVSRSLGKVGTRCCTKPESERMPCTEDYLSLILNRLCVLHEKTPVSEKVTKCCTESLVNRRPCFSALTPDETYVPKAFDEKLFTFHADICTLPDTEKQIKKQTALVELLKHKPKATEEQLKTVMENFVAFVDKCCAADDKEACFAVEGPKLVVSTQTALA
Source text: as §1, §2

| Compound | absorption maximum [1] [nm] | Fluorescence maximum ([1]; excitation 785 nm) [nm] | Fluorescence maximum [3] [nm] | Fluorescence maximum [4] [nm] | Ratio of fluorescence intensity (A/B) (albumin (BSA)) | Fluorescence maximum (albumin (BSA)) [nm] | Fluorescence intensity (A) (albumin (BSA)) | Fluorescence intensity (PBS)(B) (albumin (BSA)) | intensity of fluorescence at 20 mol % dye content as compared to 1 mol % (reduced to) ([1]; lactosome) | fluorescent dye content at which the intensity of fluorescence was highest ([1]; lactosome, excitation 785 nm) [mol %] | increase of fluorescent dye content by which fluorescence intensity per 1 μM dye is reduced to ½ ([1]; lactosome, until content reached 8 mol %) [mol %] | intensity of fluorescence by adding SDS, BSA, or plasma [2] | fluorescent dye content at which the intensity of fluorescence in PBS was maximized ([2]; lactosome) [mol %] | increase of encapsulated fluorescent dye amount by which fluorescence intensity per certain amount of dye is reduced to ½ ([2]; lactosome, amphiphilic polymer concentration 1/15 mg/mL) [mol %] | Ratio of fluorescence intensity (A/B) [3] | Fluorescence intensity (A) [3] | Fluorescence intensity (PBS)(B) [3] | Fluorescence intensity (A) [4] | Fluorescence intensity (PBS)(B) [4] | Ratio of fluorescence intensity (A/B) [4] |
| --- | --- | --- | --- | --- | --- | --- | --- | --- | --- | --- | --- | --- | --- | --- | --- | --- | --- | --- | --- | --- |
| CC1(C)C(/C=C/C2=C(Cl)C(=C/C=C3\N(CCCCCC(=O)O)c4ccc5ccccc5c4C3(C)C)/CCC2)=[N+](CCO)c2ccc3ccccc3c21.[I-] [IC7-1] | 831 | 836 | 852 | 844 | 156.3 | 837 | 92384 | 591 | about 1/120 | 1 | 0.78 | increased with dependence on fluorescent dye content | 1 | 1.12 | 204.5 | 141929 | 694 | 199746 | 696 | 287.0 |
| CC1(C)C(/C=C/C2=C(Cl)C(=C/C=C3/C=CN(CCO)c4ccccc43)/CCC2)=[N+](CCCCCC(=O)O)c2ccc3ccccc3c21.[I-] [IC7-2] | 831 | 833 | 916 | 901 | 13.1 | 903 | 185345 | 14147 | about ⅛ |  |  | increased with dependence on fluorescent dye content | 2.5 |  | 7.9 | 124942 | 15816 | 241880 | 14224 | 17.0 |
| CC1(C)C(/C=C/C=C/C=C/C=C2\N(CCCCS(=O)(=O)O)c3ccc4ccccc4c3C2(C)C)=[N+](CCCCS(=O)(=O)[O-])c2ccc3ccccc3c21 [ICG, indocyanine green] |  |  | 821 | 824 | 33.4 | 802 | 148650 | 4454 |  |  |  |  |  |  | 71.9 | 382900 | 5327 | 342590 | 5212 | 65.7 |

The next lines start with results.

| absorption maximum [1] [nm] | Fluorescence maximum ([1]; excitation 785 nm) [nm] | Fluorescence maximum [3] [nm] | Fluorescence maximum [4] [nm] | Ratio of fluorescence intensity (A/B) (albumin (BSA)) | Fluorescence maximum (albumin (BSA)) [nm] | Fluorescence intensity (A) (albumin (BSA)) | Fluorescence intensity (PBS)(B) (albumin (BSA)) | Compound | intensity of fluorescence at 20 mol % dye content as compared to 1 mol % (reduced to) ([1]; lactosome) | fluorescent dye content at which the intensity of fluorescence was highest ([1]; lactosome, excitation 785 nm) [mol %] | increase of fluorescent dye content by which fluorescence intensity per 1 μM dye is reduced to ½ ([1]; lactosome, until content reached 8 mol %) [mol %] | intensity of fluorescence by adding SDS, BSA, or plasma [2] | fluorescent dye content at which the intensity of fluorescence in PBS was maximized ([2]; lactosome) [mol %] | increase of encapsulated fluorescent dye amount by which fluorescence intensity per certain amount of dye is reduced to ½ ([2]; lactosome, amphiphilic polymer concentration 1/15 mg/mL) [mol %] | Ratio of fluorescence intensity (A/B) [3] | Fluorescence intensity (A) [3] | Fluorescence intensity (PBS)(B) [3] | Fluorescence intensity (A) [4] | Fluorescence intensity (PBS)(B) [4] | Ratio of fluorescence intensity (A/B) [4] |
| --- | --- | --- | --- | --- | --- | --- | --- | --- | --- | --- | --- | --- | --- | --- | --- | --- | --- | --- | --- | --- |
|  |  | 598 | 601 | 1.1 | 600 | 171710 | 163500 | O=C(O)c1ccccc1C1=c2cc3c4c(c2Oc2c1cc1c5c2CCCN5CCC1)CCC[N+]=4CCC3 [Rhodamine 101] |  |  |  |  |  |  | 1.5 | 249130 | 162110 | 154280 | 163410 | 0.9 |
|  |  | 702 | 699 | 1.7 | 699 | 139250 | 82260 | N#CC1=c2cc3c4c(c2Oc2c1cc1c5c2CCCN5CCC1)CCC[N+]=4CCC3 [Rhodamine 800] |  |  |  |  |  |  | 1.9 | 152580 | 80647 | 138170 | 82260 | 1.7 |
